Assay results taken from patent US7744860B2, “Reduced bioirritant composition” (Minu LLC, priority 1999, dated 2010).
“And” between values parts separate entries of the source, which are not always exact repeats. Equal values may be shown once. “Also recorded” adds a separate entry of the source.

Key:
[1] = test system: corneal neovascularization; assay: silver nitrate cauterization induced corneal neovascularization, topical treatment; type: in vivo, male Long Evans pigmented rats; conditions: for Degree of Corneal Neovascularization, OD / Degree of Corneal Neovascularization, OS / mean inhibition of neovascularization / mean percent of neovascularization relative to total corneal area: topical twice a day for seven days; for Degree of Corneal Neovascularization, OD / Degree of Corneal Neovascularization, OS: individual subjects
Protocol: Neovascularization was induced in all eyes using silver nitrate cauterization. The animals were first anesthetized by intraperitoneal injection of a mixture of ketamine hydrochloride (25 mg/kg) with xylazine hydrochloride (5 mg/kg). The cornea was then anesthetized by a drop of 0.5% proparacaine hydrochloride and allowed to dry. One cornea of each animal was cauterized by pressing an applicator stick (diameter of 1.8 mm) coated with 75% silver nitrate/25% potassium nitrate (Arzol Chemical Co., Keen, N.H.) to the central cornea for ten seconds (using a stopwatch) under the operating microscope. Excess silver nitrate was removed by rinsing the eyes with 5 ml balanced salt solution. To increase the reproducibility of the injuries, one investigator cauterized all animals. Following cauterization, the animals were randomly divided into six groups to eliminate any potential bias in the degree of burns within the different groups. Two drops of each drug were applied topically to each cornea immediately following cauterization; treatments were administered two times per day for seven days.
Group 1 (number of animals (n)=8) received 100 mg/ml pH non-neutralized ascorbic acid. All remaining experimental groups received ascorbic acid neutralized to about pH 7 as previously described in the following concentrations: Group 2 (n=8) received 100 mg/ml (10%^w/v) neutralized ascorbic acid; Group 3 (n=8) received 50 mg/ml (5%^w/v) neutralized ascorbic acid; Group 4 (n=8) received 10 mg/ml (1%^w/v) neutralized ascorbic acid; Group 5 (n=8) received 5 mg/ml neutralized ascorbic acid (0.5%^w/v); Group 6 (n=8) received 1 mg/ml neutralized ascorbic acid (0.1%^w/v); Group 7 (n=8) received 500 μg/ml neutralized ascorbic acid (0.05%^w/v); Group 8 (n=8) received 250 μg/ml neutralized ascorbic acid (0.025%^w/v). Group 9 (n=8) received two drops of saline and served as the control. All concentrations of ascorbic acid were titrated with saline.
The presence of new vessels (neovascularization) and the extent of new vessel formation was assessed by slit lamp photography and in some embodiments, by histology. Inhibition of vessel proliferation was evaluated by measuring vessel progression from the outer cornea (corneal limbus) into the cornea. As previously described, it will be appreciated that any reduction of new vessel proliferation and/or regression of existing vessels is therapeutic, and that complete inhibition and/or regression is not required, and also that reduction includes regression of existing vessels.
All animals were anesthetized as described above and their corneas evaluated by slit-lamp microscopy on the third and sixth days. Corneal photographs were taken with ×25 magnification using a camera attached to the slit-lamp microscope (Topcon SL-7E, Tokyo Japan) on the seventh day. Neovascularization was evaluated by an examiner who was blinded as to the treatment groups to minimize the observer bias.
Corneal neovascularization was assessed by scanning (Cano scan 9900F, Canon, Tokyo Japan) the slit lamp photographs into high resolution digital images. The corneal surface covered with neovascular vessels was measured on the photographs as the percentage of the total area of the cornea. The percentage area of corneal neovascularization was determined by outlining the areas with corneal vessels and comparing these to the total corneal surface using image j software (Wayne Rasband at the Research Services Branch,-National Institute of Mental Health, Bethesda Md.). The area of neovascularization was measured in terms of pixels and its ratio to the entire corneal area was determined as the percentage of corneal neovascularization. The extent of the scar was also evaluated by calculating the percentage of the corneal surface that was covered by the scar. A drawing of corneal blood vessels was made to compare with digital photos and ensure that no vascular area was omitted during calculation of percent area. […]

[2] = electroretinogram (ERG) after ascorbic acid administration; type: in vivo, Rats
Protocol: The effect of pH neutralized and non-neutralized ascorbic acid administered topically to eyes at various concentrations was determined. Rats were subject to induced corneal neovascularization as previously described and administered pH neutralized and non-neutralized ascorbic acid and saline (control) at the same concentrations as previously described. An electroretinogram (ERG) was performed to evaluate the eye's electrical responses to a flash of light using an electrode placed on the surface of the eye (e.g., cornea) as known to one skilled in the art.

[3] = 100 mg/ml, mean ± standard deviation, n = 8
[4] = 100 mg/ml, listed as pH neutralized ascorbic acid

With `O=C1O[C@H]([C@@H](O)CO)C(O)=C1O` [Ascorbic Acid Non pH Neutralized, ascorbic acid, reference compound] the “Degree of Corneal Neovascularization, OD” value ([1]; 100 mg (100 mg/ml)) was 10% and 25% and 20% and 0%, the “Degree of Corneal Neovascularization, OS” value ([1]; 100 mg (100 mg/ml)) was 33% and 30% and 22% and 0% and the “mean inhibition of neovascularization” value ([1]; 100 mg/ml) was “about 81%”. The “mean percent of neovascularization relative to total corneal area” value [1, 3] was “AVE = 17.5 ± 12.8% (n = 8)”, the “mean percent of neovascularization relative to total corneal area” value ([1]; 100 mg/ml, mean ± standard deviation, n = 8, listed as ascorbic acid non-pH neutralized) was “about 19%” and the “mean percent of neovascularization relative to total corneal area” value ([1]; 100 mg/ml, mean ± standard deviation, n = 8, listed as non-neutralized ascorbic acid) was 17.5%. For the same compound, the “mean inhibition of neovascularization” value ([1]; 100 mg/ml, listed as non-neutralized ascorbic acid) was 82.5%, the “decrease in ERG” value ([2]; 1 mg/ml, n=6) was “no significant decrease in ERG” and the “decrease in ERG” value ([2]; 10 mg/ml, n=6) was “no significant decrease in ERG”. For the same compound, the “decrease in ERG” value ([2]; 100 mg/ml, two eyes, listed as non-pH neutralized ascorbic acid) was 60% and 70% and the “ocular findings (retinal detachment, cataracts, vitreous haze, retinal edema)” value ([2]; 100 mg/ml, listed as non-pH neutralized ascorbic acid) was “partial retinal detachment”.

In the case of `O=C1O[C@H]([C@@H](O)CO)C(O)=C1O` [Ascorbic Acid pH Neutralized, ascorbic acid], the “Degree of Corneal Neovascularization, OD” value ([1]; 250 μg (250 μg/ml)) is reported as 68% and 69% and 70% and 61%, the “Degree of Corneal Neovascularization, OS” value ([1]; 250 μg (250 μg/ml)) is reported as 65% and 63% and 66% and 48% and the “mean inhibition of neovascularization” value ([1]; 250 μg/ml) is reported as “about 33%”. The “mean percent of neovascularization relative to total corneal area” value ([1]; 250 μg/ml, FIG. 2) was “about 67%”, the “mean inhibition of neovascularization” value ([1]; 250 μg/ml, listed as neutralized ascorbic acid) was “differences were not significant” and the “Degree of Corneal Neovascularization, OD” value ([1]; 500 μg (500 μg/ml)) was 54% and 69% and 70% and 61%. The “Degree of Corneal Neovascularization, OS” value ([1]; 500 μg (500 μg/ml)) was 50% and 63% and 66% and 48%, the “mean inhibition of neovascularization” value ([1]; 500 μg/ml) was “about 40%” and the “mean percent of neovascularization relative to total corneal area” value ([1]; 500 μg/ml, mean ± standard deviation, n = 8) was “mean = 60.1 ± 8.5% (n = 8)”. The “mean percent of neovascularization relative to total corneal area” value ([1]; 500 μg/ml, mean ± standard deviation, n = 8, listed as ascorbic acid pH neutralized) was “about 60%”, the “mean percent of neovascularization relative to total corneal area” value ([1]; 500 μg/ml, mean ± standard deviation, n = 8, listed as neutralized ascorbic acid) was 60.1% and the “mean inhibition of neovascularization” value ([1]; 500 μg/ml, listed as neutralized ascorbic acid) was 39.9%. For the same compound, the “Degree of Corneal Neovascularization, OD” value ([1]; 1 mg (1 mg/ml)) was 49% and 15% and 48% and 5%, the “Degree of Corneal Neovascularization, OS” value ([1]; 1 mg (1 mg/ml)) was 47% and 27% and 29% and 17% and the “mean inhibition of neovascularization” value ([1]; 1 mg/ml) was “about 69%”. The “mean percent of neovascularization relative to total corneal area” value ([1]; 1 mg/ml, mean ± standard deviation) was “mean = 29.6 ± 16.9%”, the “mean percent of neovascularization relative to total corneal area” value ([1]; 1 mg/ml, mean ± standard deviation, listed as ascorbic acid pH neutralized) was “about 31%” and the “mean inhibition of neovascularization” value ([1]; 1 mg/ml, listed as neutralized ascorbic acid) was “significant inhibition compared to control eyes”. The “Degree of Corneal Neovascularization, OD” value ([1]; 5 mg (5 mg/ml)) was 20% and 35% and 0% and 60%, the “Degree of Corneal Neovascularization, OS” value ([1]; 5 mg (5 mg/ml)) was 60% and 26% and 30% and 0% and the “mean inhibition of neovascularization” value ([1]; 5 mg/ml) was “about 70%”. The “mean percent of neovascularization relative to total corneal area” value ([1]; 5 mg/ml, mean ± standard deviation, n = 8) was “mean = 28.9 ± 23.1% (n = 8)”, the “mean percent of neovascularization relative to total corneal area” value ([1]; 5 mg/ml, mean ± standard deviation, n = 8, listed as ascorbic acid pH neutralized) was “about 30%” and the “mean inhibition of neovascularization” value ([1]; 5 mg/ml, listed as neutralized ascorbic acid) was “significant inhibition compared to control eyes”. For the same compound, the “Degree of Corneal Neovascularization, OD” value ([1]; 10 mg (10 mg/ml)) was 0% and 31% and 20% and 22%, the “Degree of Corneal Neovascularization, OS” value ([1]; 10 mg (10 mg/ml)) was 0% and 27% and 15% and 26% and the “mean inhibition of neovascularization” value ([1]; 10 mg/ml) was “about 81%”. For the same compound, the “mean percent of neovascularization relative to total corneal area” value ([1]; 10 mg/ml, mean ± standard deviation, n = 8) was “mean = 17.6 ± 11.9% (n = 8)”, the “mean percent of neovascularization relative to total corneal area” value ([1]; 10 mg/ml, mean ± standard deviation, n = 8, listed as ascorbic acid pH neutralized) was “about 19%” and the “mean inhibition of neovascularization” value ([1]; 10 mg/ml, listed as neutralized ascorbic acid) was “significant inhibition compared to control eyes”. For the same compound, the “Degree of Corneal Neovascularization, OD” value ([1]; 50 mg (50 mg/ml)) was 10% and 15% and 32% and 3%, the “Degree of Corneal Neovascularization, OS” value ([1]; 50 mg (50 mg/ml)) was 5% and 35% and 22% and 0% and the “mean inhibition of neovascularization” value ([1]; 50 mg/ml) was “about 83.5%”. For the same compound, the “mean percent of neovascularization relative to total corneal area” value ([1]; 50 mg/ml, mean ± standard deviation, n = 8) was “mean = 15.2 ± 13.3% (n = 8)”, the “mean percent of neovascularization relative to total corneal area” value ([1]; 50 mg/ml, mean ± standard deviation, n = 8, listed as ascorbic acid pH neutralized) was “about 16.5%” and the “mean inhibition of neovascularization” value ([1]; 50 mg/ml, listed as neutralized ascorbic acid) was “significant inhibition compared to control eyes”. The “Degree of Corneal Neovascularization, OD” value ([1]; 100 mg (100 mg/ml)) was 0% and 31% and 15% and 28%, the “Degree of Corneal Neovascularization, OS” value ([1]; 100 mg (100 mg/ml)) was 54% and 5% and 3% and 0% and the “mean inhibition of neovascularization” value ([1]; 100 mg/ml) was “about 82%”. For the same compound, the “mean percent of neovascularization relative to total corneal area” value [1, 3] was “AVE = 17.0 ± 19.3% (n = 8)”, the “mean percent of neovascularization relative to total corneal area” value ([1]; 100 mg/ml, mean ± standard deviation, n = 8, listed as ascorbic acid pH neutralized) was “about 18%” and the “mean percent of neovascularization relative to total corneal area” value ([1]; 100 mg/ml, mean ± standard deviation, n = 8, listed as pH neutralized ascorbic acid) was 17.0%. The “mean inhibition of neovascularization” value [1, 4] was 83.0%, the “inhibition of corneal neovascularization” value ([1]; concentrations ranging from 100 mg/ml to 500 μg/ml) was “significantly inhibited corneal neovascularization” and the “decrease in ERG” value ([2]; 1 mg/ml, n=6) was “no significant decrease in ERG”. For the same compound, the “decrease in ERG” value ([2]; 10 mg/ml, n=6) was “no significant decrease in ERG”, the “decrease in ERG” value ([2]; 100 mg/ml, two eyes, listed as pH neutralized ascorbic acid) was 100% and the “ocular findings (retinal detachment, cataracts, vitreous haze, retinal edema)” value [2, 4] was “neither cataracts nor retinal detachment; also recorded: vitreous haze and retinal edema”.
